pKi: −log10 of the molar value.
Target: Leucine-rich repeat serine/threonine-protein kinase 2 (Homo sapiens, UniProt Q5S007)
Assay: Lanthascreen Binding Assay
Protocol: This assay was used to determine a compound's potency in inhibiting activity of LRRK2 by determining, Kiapp, IC50, or percent inhibition values. In 384 well proxiplates F black, shallow well plates LRRK2, Eu-anti-GST-antibody, Alexa Fluor Kinase tracer 236 and test compound were incubated together.Binding of the Alexa Fluor tracer to a kinase is detected by addition of a Eu-labeled anti-GST antibody. Binding of the tracer and antibody to a kinase results in a high degree of FRET, whereas displacement of the tracer with a kinase inhibitor results in a loss of FRET. Assay conditions and materials used were as follows: Final Assay Conditions: GST-LRRK2 G2019S 10 nM Eu-anti-GST-antibody 2 nM Kinase tracer 236 8.5 nM Kinase reaction time: 1 hour Temperature: ambient Total volume: 15 ul DMSO 1% Materials: 384 well proxiplates F black shallow cat# 6008260 well Perkin Elmer Kinase: LRRK2 G2019S, Invitrogen cat # PV4882(LOT 567054A).

Sequence of Leucine-rich repeat serine/threonine-protein kinase 2 (Q5S007 whole entry): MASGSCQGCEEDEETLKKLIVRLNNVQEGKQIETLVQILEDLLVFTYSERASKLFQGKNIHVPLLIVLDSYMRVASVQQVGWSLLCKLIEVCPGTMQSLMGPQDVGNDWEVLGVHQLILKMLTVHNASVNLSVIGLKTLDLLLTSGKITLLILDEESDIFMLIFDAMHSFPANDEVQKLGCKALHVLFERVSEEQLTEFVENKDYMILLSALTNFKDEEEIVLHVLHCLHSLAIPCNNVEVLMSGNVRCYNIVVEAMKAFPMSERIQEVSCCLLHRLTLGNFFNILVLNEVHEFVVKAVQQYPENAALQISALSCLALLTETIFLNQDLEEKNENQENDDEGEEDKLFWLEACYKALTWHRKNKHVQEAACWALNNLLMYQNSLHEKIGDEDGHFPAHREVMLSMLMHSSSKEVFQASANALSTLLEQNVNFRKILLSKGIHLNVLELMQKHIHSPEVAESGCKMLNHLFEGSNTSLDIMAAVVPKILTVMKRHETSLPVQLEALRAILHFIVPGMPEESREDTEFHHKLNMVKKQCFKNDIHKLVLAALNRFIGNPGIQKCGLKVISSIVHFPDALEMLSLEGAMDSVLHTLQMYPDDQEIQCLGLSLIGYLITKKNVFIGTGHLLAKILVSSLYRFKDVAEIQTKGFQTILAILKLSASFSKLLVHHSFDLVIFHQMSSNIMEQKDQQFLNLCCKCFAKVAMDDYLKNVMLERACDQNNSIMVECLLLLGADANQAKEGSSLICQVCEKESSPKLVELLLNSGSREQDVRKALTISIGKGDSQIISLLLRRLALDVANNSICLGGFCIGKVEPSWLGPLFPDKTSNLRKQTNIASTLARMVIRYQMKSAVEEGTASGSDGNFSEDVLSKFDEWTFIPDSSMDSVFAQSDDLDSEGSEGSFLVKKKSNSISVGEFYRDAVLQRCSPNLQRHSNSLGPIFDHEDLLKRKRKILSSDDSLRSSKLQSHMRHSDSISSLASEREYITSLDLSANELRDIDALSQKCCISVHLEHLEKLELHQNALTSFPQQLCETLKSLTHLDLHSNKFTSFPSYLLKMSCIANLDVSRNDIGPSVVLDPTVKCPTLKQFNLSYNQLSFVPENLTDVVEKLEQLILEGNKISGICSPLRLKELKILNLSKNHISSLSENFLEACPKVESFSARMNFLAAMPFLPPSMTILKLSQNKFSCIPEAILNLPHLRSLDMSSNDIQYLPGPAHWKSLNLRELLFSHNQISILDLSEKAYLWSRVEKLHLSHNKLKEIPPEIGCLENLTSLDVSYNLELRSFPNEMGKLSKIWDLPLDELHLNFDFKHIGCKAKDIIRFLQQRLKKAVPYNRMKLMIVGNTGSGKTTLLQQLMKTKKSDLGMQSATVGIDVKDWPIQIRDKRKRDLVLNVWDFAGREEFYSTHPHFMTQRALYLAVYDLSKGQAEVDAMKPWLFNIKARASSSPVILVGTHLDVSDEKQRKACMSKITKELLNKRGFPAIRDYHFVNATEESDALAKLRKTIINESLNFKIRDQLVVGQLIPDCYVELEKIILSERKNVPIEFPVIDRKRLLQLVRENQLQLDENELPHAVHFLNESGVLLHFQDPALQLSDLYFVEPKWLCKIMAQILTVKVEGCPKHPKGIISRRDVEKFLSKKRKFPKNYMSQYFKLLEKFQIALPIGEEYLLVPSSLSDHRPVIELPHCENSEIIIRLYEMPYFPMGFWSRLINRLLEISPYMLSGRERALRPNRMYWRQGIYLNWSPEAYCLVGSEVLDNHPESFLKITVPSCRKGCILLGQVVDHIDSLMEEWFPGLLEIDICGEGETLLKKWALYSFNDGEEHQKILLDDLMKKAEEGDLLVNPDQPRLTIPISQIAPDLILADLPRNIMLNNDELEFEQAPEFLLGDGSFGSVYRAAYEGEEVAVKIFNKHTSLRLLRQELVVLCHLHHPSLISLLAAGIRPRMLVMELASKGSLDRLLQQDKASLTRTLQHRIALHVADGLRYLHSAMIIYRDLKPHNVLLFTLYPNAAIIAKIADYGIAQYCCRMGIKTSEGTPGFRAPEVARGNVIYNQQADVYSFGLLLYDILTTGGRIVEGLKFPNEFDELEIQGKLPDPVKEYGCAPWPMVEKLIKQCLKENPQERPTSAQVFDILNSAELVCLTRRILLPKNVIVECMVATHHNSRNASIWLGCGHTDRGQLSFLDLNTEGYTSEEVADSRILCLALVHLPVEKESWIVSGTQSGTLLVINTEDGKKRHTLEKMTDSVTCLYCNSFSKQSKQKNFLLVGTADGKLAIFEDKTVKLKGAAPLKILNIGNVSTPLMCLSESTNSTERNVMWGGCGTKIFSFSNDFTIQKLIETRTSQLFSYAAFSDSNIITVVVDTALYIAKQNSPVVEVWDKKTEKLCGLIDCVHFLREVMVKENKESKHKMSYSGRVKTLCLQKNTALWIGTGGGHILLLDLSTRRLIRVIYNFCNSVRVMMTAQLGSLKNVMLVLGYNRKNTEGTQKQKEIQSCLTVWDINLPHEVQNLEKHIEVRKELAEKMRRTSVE

pKi	Structure (SMILES)
6.81	CCn1cnnc1C(C)(C)n1cc(Nc2ncc(C(F)(F)F)c(NC)n2)c(Cl)n1 [US9212173, 11]
8.96	CCNc1nc(Nc2cn(C(C)(C)c3ncn(CC)n3)nc2Cl)ncc1C(F)(F)F [US9212173, 14]

Source: BindingDB's records for patent US9212173 (Genentech, 2015)
